In general, half-life refers to the time in which the quantity being followed falls by half. As a reminder, the IC50 is the concentration needed to halve the response being measured. In general, inhibition refers to the relative decrease from the control value, in per cent.

The nature of data set [1]: Metabolic stability in monkey liver microsome assessed as half life. It counts as ADME, Macaca mulatta. The settings on record: rhesus monkey, liver microsomes. In general terms: Liver microsomes are a subcellular fraction often used to study metabolism.
A short description of data set [2]: Inhibition of MRP1 (unknown origin) ATPase activity. More on the design: species or system Homo sapiens.
Data set [3] deals with T1, Cytochrome P450 3A4 (Homo sapiens, UniProt P08684). Kind of data set: Inhibition of CYP3A4 in human liver using luciferin-IPA as substrate microsome preincubated with compound for 10 mins followed by NADPH addition and measured after 5 mins. Type of data set: ADME, microsomes.
T1 sequence (P08684 whole entry): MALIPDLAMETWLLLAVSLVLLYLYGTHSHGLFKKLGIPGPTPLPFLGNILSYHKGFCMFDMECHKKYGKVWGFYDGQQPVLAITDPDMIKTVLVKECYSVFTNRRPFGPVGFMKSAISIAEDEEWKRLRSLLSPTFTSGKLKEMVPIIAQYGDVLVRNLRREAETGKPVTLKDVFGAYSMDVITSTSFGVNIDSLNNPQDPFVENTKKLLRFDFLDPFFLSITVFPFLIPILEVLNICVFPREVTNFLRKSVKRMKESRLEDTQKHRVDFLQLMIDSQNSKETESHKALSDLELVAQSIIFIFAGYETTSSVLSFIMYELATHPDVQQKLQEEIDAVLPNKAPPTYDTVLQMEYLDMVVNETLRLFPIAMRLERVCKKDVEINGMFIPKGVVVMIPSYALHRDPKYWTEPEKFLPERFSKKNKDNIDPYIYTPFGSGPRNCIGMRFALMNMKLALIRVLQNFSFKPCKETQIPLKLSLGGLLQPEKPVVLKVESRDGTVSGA
Data set [4] can be described thus: Metabolic stability in mouse liver microsome assessed as half life. Type of data set: ADME. The settings on record: liver microsomes.
In data set [5] the target is T2, Cytochrome P450 2C8 (Homo sapiens, UniProt P10632).
T2 sequence (P10632 whole entry): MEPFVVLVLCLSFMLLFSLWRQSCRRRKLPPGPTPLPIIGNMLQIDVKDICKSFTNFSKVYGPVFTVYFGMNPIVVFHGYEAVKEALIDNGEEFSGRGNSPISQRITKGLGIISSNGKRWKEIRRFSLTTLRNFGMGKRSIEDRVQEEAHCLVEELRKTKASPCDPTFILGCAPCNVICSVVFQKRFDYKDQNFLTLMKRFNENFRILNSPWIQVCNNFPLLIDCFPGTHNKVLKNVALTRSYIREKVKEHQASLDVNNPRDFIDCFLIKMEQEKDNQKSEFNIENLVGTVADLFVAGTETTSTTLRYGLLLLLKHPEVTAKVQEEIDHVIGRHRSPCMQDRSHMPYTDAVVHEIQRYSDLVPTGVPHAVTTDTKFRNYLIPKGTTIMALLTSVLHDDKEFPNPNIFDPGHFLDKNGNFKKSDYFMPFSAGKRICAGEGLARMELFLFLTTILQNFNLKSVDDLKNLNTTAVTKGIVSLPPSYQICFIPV
In words: Inhibition of CYP2C8 (unknown origin) using Amodiaquine as substrate. It counts as ADME.

The target in data set [6] is T3, P-gp (ABCB1) (Homo sapiens, UniProt P08183). In words: Inhibition of P-gp in human Caco-2 cells at 1 uM in presence of paclitaxel relative to control. The note with it: Caco-2, probe paclitaxel. It counts as cell-based.
T3 sequence (P08183 whole entry): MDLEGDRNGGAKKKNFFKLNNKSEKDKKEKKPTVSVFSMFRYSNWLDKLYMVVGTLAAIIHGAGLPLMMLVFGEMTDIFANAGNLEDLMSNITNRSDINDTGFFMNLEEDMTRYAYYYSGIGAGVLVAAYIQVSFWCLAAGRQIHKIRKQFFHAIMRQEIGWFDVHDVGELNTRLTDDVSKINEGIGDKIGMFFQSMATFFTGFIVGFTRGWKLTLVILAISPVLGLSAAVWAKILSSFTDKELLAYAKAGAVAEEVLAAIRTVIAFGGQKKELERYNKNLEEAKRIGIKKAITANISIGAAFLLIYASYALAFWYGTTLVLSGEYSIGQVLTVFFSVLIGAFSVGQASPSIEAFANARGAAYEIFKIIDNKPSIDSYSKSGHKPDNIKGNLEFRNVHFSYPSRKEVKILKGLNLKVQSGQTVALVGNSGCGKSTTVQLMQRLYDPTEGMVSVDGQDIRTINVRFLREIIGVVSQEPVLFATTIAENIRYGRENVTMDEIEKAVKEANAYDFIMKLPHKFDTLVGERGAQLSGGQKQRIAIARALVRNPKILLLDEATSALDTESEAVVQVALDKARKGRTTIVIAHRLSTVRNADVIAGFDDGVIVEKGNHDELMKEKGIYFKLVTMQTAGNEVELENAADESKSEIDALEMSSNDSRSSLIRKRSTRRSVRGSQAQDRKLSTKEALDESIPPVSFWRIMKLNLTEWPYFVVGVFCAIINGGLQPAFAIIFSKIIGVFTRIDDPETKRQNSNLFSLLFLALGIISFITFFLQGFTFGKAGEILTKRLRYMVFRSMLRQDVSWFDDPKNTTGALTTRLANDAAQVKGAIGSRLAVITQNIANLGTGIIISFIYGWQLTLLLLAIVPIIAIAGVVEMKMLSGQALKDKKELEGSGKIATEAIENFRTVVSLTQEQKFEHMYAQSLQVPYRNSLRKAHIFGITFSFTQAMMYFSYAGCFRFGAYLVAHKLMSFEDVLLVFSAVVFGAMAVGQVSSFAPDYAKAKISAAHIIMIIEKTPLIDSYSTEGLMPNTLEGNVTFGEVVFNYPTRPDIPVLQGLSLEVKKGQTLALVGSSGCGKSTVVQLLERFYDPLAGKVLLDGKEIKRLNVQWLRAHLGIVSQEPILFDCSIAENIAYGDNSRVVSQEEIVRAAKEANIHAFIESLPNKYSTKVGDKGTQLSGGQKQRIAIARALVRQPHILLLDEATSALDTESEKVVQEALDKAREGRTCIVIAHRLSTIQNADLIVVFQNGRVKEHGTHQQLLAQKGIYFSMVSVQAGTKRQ
In data set [7] the target is T3, P-gp (ABCB1). Kind of data set: Inhibition of P-gp in human Caco-2 cells at 10 uM in presence of paclitaxel relative to control. It counts as cell-based. The note with it: Caco-2, probe paclitaxel.
The nature of data set [8]: Metabolic stability in human liver microsome assessed as intrinsic clearance. The settings on record: microsomes. Type of data set: ADME.
Data set [9] concerns the target ATP-binding cassette sub-family C member 2 (Homo sapiens, UniProt Q92887). Kind of data set: Inhibition of MRP2 (unknown origin) ATPase activity.
The target of data set [10] is T3, P-gp (ABCB1). Kind of data set: Inhibition of P-gp in human Caco-2 cells at 0.1 uM in presence of paclitaxel relative to control. Type of data set: cell-based. The settings on record: Caco-2, probe paclitaxel.
Data set [11] deals with T1, Cytochrome P450 3A4. In words: Inhibition of CYP3A4 in human Hepatocyte using Luciferin-IPA as substrate. Type of data set: ADME, cell-based.
Data set [12] in a line: Metabolic stability in monkey liver microsome assessed as intrinsic clearance. Type of data set: ADME, Macaca mulatta. The settings on record: rhesus monkey, microsomes.
The nature of data set [13]: Inhibition of CYP3A4 in mouse liver using luciferin-IPA as substrate microsome preincubated with compound for 10 mins followed by NADPH addition and measured after 5 mins. Type of data set: ADME, microsomes.

ATP-binding cassette sub-family C member 2, sequence (Q92887 whole entry): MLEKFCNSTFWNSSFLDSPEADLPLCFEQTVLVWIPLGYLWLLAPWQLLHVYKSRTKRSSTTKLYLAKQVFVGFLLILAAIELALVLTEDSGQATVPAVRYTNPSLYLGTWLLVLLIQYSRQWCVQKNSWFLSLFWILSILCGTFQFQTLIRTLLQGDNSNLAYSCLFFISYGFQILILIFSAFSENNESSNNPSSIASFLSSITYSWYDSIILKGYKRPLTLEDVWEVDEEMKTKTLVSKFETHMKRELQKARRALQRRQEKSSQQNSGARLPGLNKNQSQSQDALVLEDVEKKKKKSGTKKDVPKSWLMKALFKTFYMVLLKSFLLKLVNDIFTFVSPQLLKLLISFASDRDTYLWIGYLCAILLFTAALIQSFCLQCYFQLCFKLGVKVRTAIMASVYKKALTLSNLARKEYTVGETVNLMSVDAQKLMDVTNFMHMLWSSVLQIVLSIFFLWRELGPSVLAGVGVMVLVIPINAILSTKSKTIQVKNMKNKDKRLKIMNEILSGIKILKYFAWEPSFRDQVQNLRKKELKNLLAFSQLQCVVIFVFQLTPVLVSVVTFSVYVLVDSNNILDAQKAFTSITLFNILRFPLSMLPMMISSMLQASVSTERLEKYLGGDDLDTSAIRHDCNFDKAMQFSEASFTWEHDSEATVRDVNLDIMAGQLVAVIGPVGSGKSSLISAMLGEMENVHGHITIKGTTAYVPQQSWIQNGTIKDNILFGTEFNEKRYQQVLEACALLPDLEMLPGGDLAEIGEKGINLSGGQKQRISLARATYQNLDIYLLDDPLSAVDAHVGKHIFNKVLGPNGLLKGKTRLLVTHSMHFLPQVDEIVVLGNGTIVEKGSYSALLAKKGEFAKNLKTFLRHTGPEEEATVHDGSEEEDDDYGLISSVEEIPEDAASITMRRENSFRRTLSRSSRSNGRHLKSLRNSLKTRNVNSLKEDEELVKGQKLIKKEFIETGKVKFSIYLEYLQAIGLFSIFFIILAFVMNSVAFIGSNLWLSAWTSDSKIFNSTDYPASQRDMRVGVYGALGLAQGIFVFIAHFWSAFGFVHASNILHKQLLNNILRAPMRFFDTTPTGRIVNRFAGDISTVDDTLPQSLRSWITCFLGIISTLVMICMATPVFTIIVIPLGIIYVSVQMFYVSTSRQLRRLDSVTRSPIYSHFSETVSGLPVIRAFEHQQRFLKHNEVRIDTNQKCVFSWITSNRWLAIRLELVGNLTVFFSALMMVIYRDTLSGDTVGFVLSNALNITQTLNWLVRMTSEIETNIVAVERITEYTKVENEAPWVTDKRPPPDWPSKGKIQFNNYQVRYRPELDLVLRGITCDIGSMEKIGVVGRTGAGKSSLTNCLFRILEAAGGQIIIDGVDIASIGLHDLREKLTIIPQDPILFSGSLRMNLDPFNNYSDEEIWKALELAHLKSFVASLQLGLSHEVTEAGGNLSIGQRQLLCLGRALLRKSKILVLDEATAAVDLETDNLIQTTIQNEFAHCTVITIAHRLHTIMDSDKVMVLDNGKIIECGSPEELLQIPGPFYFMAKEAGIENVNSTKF

Consider `COc1cc(NC(=O)c2cc(=O)c3ccccc3o2)c(C(=O)Nc2ccc(C3CCN(Cc4cccc(-n5ccnc5)c4)CC3)cc2)cc1OC`, for which the half-life was 4.9 min in [1] and 37 min in data set [4]. The IC50 in data set [2] was more than 10 µM; in [3] it was 0.223 µM; in data set [5], 11 µM; in [9] it was more than 10 µM; in [11] it was 1.47 µM; in data set [13], 0.089 µM. Besides, in [6], the inhibition at 1 µM came to 97%. Further, the inhibition at 10 µM in data set [7] was found to be 99%. The results for the CLH in data set [8] and in data set [12] were 300 µL/min/mg and 280 µL/min/mg, respectively. In addition, the inhibition at 0.1 µM in data set [10] worked out at 89%.

These data come from ChEMBL document CHEMBL5523718, “Design, synthesis, molecular modeling, in vitro and in vivo biological evaluation of potent anthranilamide derivatives as dual P-glycoprotein and CYP3A4 inhibitors” (Eur J Med Chem, 2024).
